# Assay results as given in ChEMBL document CHEMBL5528003 (Eur J Med Chem, 2024).
# Active and inactive are the calls of the source. The rule behind the calls is not given here.
# Experiments:
# [1] = Metabolic stability in human liver microsomes assessed as parent compound remaining incubated for 60 mins in presence of NADPH by LC-MS/MS analysis; format: ADME, Microsome; settings: read-out: Stability
# [2] = Metabolic stability in rat liver microsomes assessed as parent compound remaining incubated for 60 mins in presence of NADPH by LC-MS/MS analysis; format: ADME, Microsome; settings: read-out: Stability
# [3] = target: T1, Estrogen receptor (Homo sapiens, UniProt P03372); experiment: Induction of Estrogen receptor degradation in wildtype human MCF7 cells assessed as reduction in estrogen receptor level incubated for 24 hrs by Western blot analysis; format: cell-based
# T1 sequence (P03372 whole entry): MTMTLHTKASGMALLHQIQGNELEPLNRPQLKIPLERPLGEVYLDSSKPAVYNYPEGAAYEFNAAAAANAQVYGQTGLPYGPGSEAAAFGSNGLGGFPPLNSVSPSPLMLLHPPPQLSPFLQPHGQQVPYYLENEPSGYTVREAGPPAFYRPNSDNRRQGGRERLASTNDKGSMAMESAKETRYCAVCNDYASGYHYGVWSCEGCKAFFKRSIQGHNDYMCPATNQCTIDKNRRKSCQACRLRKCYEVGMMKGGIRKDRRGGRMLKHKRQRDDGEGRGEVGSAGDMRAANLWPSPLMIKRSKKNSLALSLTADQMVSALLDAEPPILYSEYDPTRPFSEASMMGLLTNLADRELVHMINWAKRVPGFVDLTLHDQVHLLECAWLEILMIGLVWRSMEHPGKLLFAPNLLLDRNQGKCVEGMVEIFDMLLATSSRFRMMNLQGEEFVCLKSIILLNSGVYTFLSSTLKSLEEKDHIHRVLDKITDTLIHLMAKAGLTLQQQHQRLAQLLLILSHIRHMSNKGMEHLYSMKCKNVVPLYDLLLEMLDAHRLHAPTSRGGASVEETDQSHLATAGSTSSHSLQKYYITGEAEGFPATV
# [4] = test system: MCF7; experiment: Antiproliferative activity against wildtype human MCF7 cells assessed as inhibition of cell proliferation incubated for 6 days in presence of beta-estradiol by CellTiter-Glo assay; format: functional, cell-based; settings: MCF7, 144 h
# [5] = Apparent volume of distribution during terminal phase in Sprague-Dawley rat at 30 mg/kg, IM measured after 49 days by LC-MS/MS analysis; format: ADME, organism-based; settings: in vivo, 1176 h, time 49 day
# [6] = Drug concentration in BALB/cNj Foxn1nu/Gpt mouse plasma xenografted with human MCF-7/TAMR-1 cells at 2.4 mg, IM administered for 28 days; format: ADME, cell-free; settings: time 28 day
# [7] = MRT in Sprague-Dawley rat at 30 mg/kg, IM measured after 49 days by LC-MS/MS analysis; format: ADME, organism-based; settings: in vivo, time 49 day
# [8] = Cmax in Sprague-Dawley rat at 30 mg/kg, IM measured after 49 days by LC-MS/MS analysis; format: ADME, organism-based; settings: in vivo, time 49 day
# [9] = Drug concentration in BALB/cNj Foxn1nu/Gpt mouse tumor xenografted with human MCF-7/TAMR-1 cells at 0.8 mg, IM administered for 28 days; format: ADME, tissue-based, Neoplasm; settings: time 28 day, read-out: Ct
# [10] = Half-life in Sprague-Dawley rat at 30 mg/kg, IM measured after 49 days by LC-MS/MS analysis; format: ADME, organism-based; settings: in vivo, time 49 day
# [11] = test system: MCF7; experiment: Induction of apoptosis in human MCF7 cells assessed as viable cells at 100 nM incubated for 24 hrs by Annexin V-FITC/PI staining based flow cytometric analysis (reference value: 93.5 %); format: functional; settings: read-out: Activity
# [12] = test system: MCF7; experiment: Induction of apoptosis in human MCF7 cells assessed as viable cells at 4 nM incubated for 24 hrs by Annexin V-FITC/PI staining based flow cytometric analysis (reference value: 93.5 %); format: functional; settings: read-out: Activity
# [13] = Drug concentration in BALB/cNj Foxn1nu/Gpt mouse tumor xenografted with human MCF-7/TAMR-1 cells at 7.2 mg, IM administered for 28 days; format: ADME, tissue-based, Neoplasm; settings: time 28 day, read-out: Ct
# [14] = Drug concentration in BALB/cNj Foxn1nu/Gpt mouse plasma xenografted with human MCF-7/TAMR-1 cells at 0.8 mg, IM administered for 28 days; format: ADME, cell-free; settings: time 28 day
# [15] = Solubility of compound in long acting formulation containing ethanol, benzyl alcohol, benzyl benzoate and castor oil at 57.27 mg incubated for 1 day by LC-MS/MS analysis; format: physicochemical; settings: 24 h
# [16] = AUClast in Sprague-Dawley rat at 30 mg/kg, IM measured after 49 days by LC-MS/MS analysis; format: ADME, organism-based; settings: in vivo, 1176 h, time 49 day
# [17] = test system: MCF7; experiment: Induction of apoptosis in human MCF7 cells assessed as viable cells at 20 nM incubated for 24 hrs by Annexin V-FITC/PI staining based flow cytometric analysis (reference value: 93.5 %); format: functional; settings: read-out: Activity
# [18] = Solubility of compound in long acting formulation containing ethanol, benzyl alcohol, benzyl benzoate and castor oil incubated for 1 days by LC-MS/MS analysis; format: physicochemical; settings: 24 h; time 1 day
# [19] = Drug concentration in BALB/cNj Foxn1nu/Gpt mouse plasma xenografted with human MCF-7/TAMR-1 cells at 7.2 mg, IM administered for 28 days; format: ADME, cell-free; settings: time 28 day
# [20] = Drug concentration in BALB/cNj Foxn1nu/Gpt mouse tumor xenografted with human MCF-7/TAMR-1 cells at 2.4 mg, IM administered for 28 days; format: ADME, tissue-based, Neoplasm; settings: time 28 day, read-out: Ct
# [21] = Tmax in Sprague-Dawley rat at 30 mg/kg, IM measured after 49 days by LC-MS/MS analysis; format: ADME, organism-based; settings: in vivo, 1176 h, time 49 day
# [22] = Solubility of compound in long acting formulation containing ethanol, benzyl alcohol, benzyl benzoate and castor oil at 28.07 mg incubated for 1 day by LC-MS/MS analysis; format: physicochemical; settings: 24 h
# [23] = Solubility of compound in long acting formulation containing ethanol, benzyl alcohol, benzyl benzoate and castor oil assessed as clear yellow oil solution at 33.69 mg incubated for 1 day by LC-MS/MS analysis; format: physicochemical; settings: 24 h
# [24] = test system: T47D; experiment: Antiproliferative activity against human T47D cells assessed as inhibition of proliferation incubated for 6 days by CellTiter-Glo assay; settings: 144 h
# [25] = test system: Mus musculus; experiment: In vivo antagonist activity at Estrogen receptor in BALB/cNj Foxn1nu/Gpt mouse xenografted with human MCF-7/TAMR-1 cells assessed as reduction in ER level in tumor at 2.0 mg, IM administered for 28 days by Western blot analysis; format: functional; settings: time 28.0 day
# [26] = Apparent volume of distribution during terminal phase in Sprague-Dawley rat at 25 mg/kg, IM measured after 49 days by LC-MS/MS analysis; format: ADME, organism-based; settings: in vivo, 1176 h, time 49 day
# [27] = test system: MCF7; settings: Homo sapiens, dose 4.0 nM, time 144.0 hrs
# [28] = test system: T47D; experiment: Antiproliferative activity against human T47D cells transfected with ESR1 Y537S mutant assessed as inhibition of cell proliferation incubated for 5 days by CellTiter-Glo assay; settings: 120 h
# [29] = Half-life in Sprague-Dawley rat at 25 mg/kg, IM measured after 49 days by LC-MS/MS analysis; format: ADME, organism-based; settings: in vivo, time 49 day
# [30] = AUClast in Sprague-Dawley rat at 25 mg/kg, IM measured after 49 days by LC-MS/MS analysis; format: ADME, organism-based; settings: in vivo, 1176 h, time 49 day
# [31] = Drug concentration in BALB/cNj Foxn1nu/Gpt mouse plasma xenografted with human MCF-7/TAMR-1 cells at 2.0 mg, IM administered for 28 days; format: ADME, cell-free; settings: time 28 day
# [32] = MRT in Sprague-Dawley rat at 25 mg/kg, IM measured after 49 days by LC-MS/MS analysis; format: ADME, organism-based; settings: in vivo, time 49 day
# [33] = test system: Mus musculus; experiment: In vivo antagonist activity at Estrogen receptor in BALB/cNj Foxn1nu/Gpt mouse xenografted with human MCF-7/TAMR-1 cells assessed as reduction in PgR level in tumor at 2.0 mg, IM administered for 28 days by Western blot analysis; format: functional; settings: time 28.0 day
# [34] = test system: Mus musculus; experiment: Invivo antagonist activity at Estrogen receptor in BALB/cNj Foxn1nu/Gpt mouse xenografted with human MCF-7/TAMR-1 cells assessed as single-layered cell phenotype of epithelial cells in uterus at 2.0 mg, IM administered for 28 days by H&E staining based analysis; format: functional; settings: time 28.0 day
# [35] = test system: T47D; experiment: Antiproliferative activity against human T47D cells transfected with ESR1 D538G mutant assessed as inhibition of cell proliferation incubated for 5 days by CellTiter-Glo assay; settings: 120 h
# [36] = In vivo antagonist activity at Estrogen receptor in BALB/cNj Foxn1nu/Gpt mouse xenografted with human MCF-7/TAMR-1 cells assessed as fold reduction in uterus wet weight to body weight ratio at 2.0 mg, IM administered for 28 days; format: functional; settings: time 28 day
# [37] = Drug concentration in BALB/cNj Foxn1nu/Gpt mouse tumor xenografted with human MCF-7/TAMR-1 cells at 2.0 mg, IM administered for 28 days; format: ADME, tissue-based, Neoplasm; settings: time 28 day, read-out: Ct
# [38] = test system: T47D; experiment: Antiproliferative activity against human T47D cells transfected with wildtype ESR1 assessed as inhibition of cell proliferation incubated for 5 days by CellTiter-Glo assay; settings: 120 h
# [39] = Cmax in Sprague-Dawley rat at 25 mg/kg, IM measured after 49 days by LC-MS/MS analysis; format: ADME, organism-based; settings: in vivo, time 49 day
# [40] = target: T2, Estrogen receptor (Homo sapiens) (UniProt P03372); settings: T47D, time <= 48.0 hrs
# T2 sequence (whole entry): T1 sequence (P03372 whole entry)
# [41] = target: T2, Estrogen receptor (Homo sapiens); settings: MCF7, time <= 48.0 hrs
# [42] = Tmax in Sprague-Dawley rat at 25 mg/kg, IM measured after 49 days by LC-MS/MS analysis; format: ADME, organism-based; settings: in vivo, time 49 day
compound,measurement,setting,value
C[C@@H]1Cc2c([nH]c3ccccc23)[C@@H](c2c(F)cc(NC3CN(CCCS(=O)(=O)CCCC(F)(F)C(F)(F)F)C3)cc2F)N1CC(F)(F)F,remaining at 1 h,[1],71.2%
same,remaining at 1 h,[2],99.1%
same,DC50,[3],10.6 nM
same,IC50,[4],9.7 nM
C[C@@H]1Cc2c([nH]c3ccccc23)[C@@H](c2c(F)cc(NC3CN(CC[S+]([O-])CCCC(F)(F)C(F)(F)F)C3)cc2F)N1CC(F)(F)CO (some centres not stated),remaining at 1 h,[1],29.1%
same,remaining at 1 h,[2],78%
C[C@@H]1Cc2c([nH]c3ccccc23)[C@@H](c2c(F)cc(NC3CN(CCCS(=O)(=O)CCCC(F)(F)C(F)(F)F)C3)cc2F)N1CC(F)(F)CO,Vz/F,[5],1658.37 L/kg
same,concentration at 672 h,[6],46.6 ng/mL
same,MRT,[7],15.6 days
same,Cmax,[8],41.5 ng/mL
same,remaining at 1 h,[1],61%
same,concentration at 672 h,[9],35.9 ng/mL
same,half-life,[10],14.7 days
same,viability at 0.1 µM,[11],66.2%
same,viability at 0.004 µM,[12],82.7%
same,concentration at 672 h,[13],252 ng/mL
same,remaining at 1 h,[2],85.7%
same,concentration at 672 h,[14],14.9 ng/mL
same,solubility,[15],Insoluble
same,AUClast,[16],840.09 ng·days/mL
same,viability at 0.02 µM,[17],70.5%
same,solubility,[18],95.1 mg/mL
same,concentration at 672 h,[19],87.7 ng/mL
same,concentration at 672 h,[20],154 ng/mL
same,Tmax,[21],14 days
same,solubility,[22],Insoluble
same,solubility,[23],Soluble
C[C@]12CC[C@@H]3c4ccc(O)cc4C[C@@H](CCCCCCCCC[S+]([O-])CCCC(F)(F)C(F)(F)F)[C@H]3[C@@H]1CC[C@@H]2O (some centres not stated) [FULVESTRANT],remaining at 1 h,[1],13%
same,IC50,[24],2.3 nM
same,Activity,[25],Active
same,Vz/F,[26],2158.67 L/kg
same,inhibition,[27],Active
same,IC50,[28],5.94 nM
same,remaining at 1 h,[2],9.6%
same,half-life,[29],28.6 days
same,AUClast,[30],325.96 ng·days/mL
same,concentration at 672 h,[31],30.8 ng/mL
same,MRT,[32],18.3 days
same,Activity,[33],Active
same,Activity,[34],Active
same,IC50,[35],58.6 nM
same,fold change (FC),[36],~2
same,concentration at 672 h,[37],83.4 ng/mL
same,solubility,[18],53.17 mg/mL
same,IC50,[4],0.7 nM
same,IC50,[38],2.21 nM
same,Cmax,[39],36.7 ng/mL
same,T1/2,[40],0.608 days
same,T1/2,[41],0.0542 days
same,Tmax,[42],0.29 days
C[C@@H]1Cc2c([nH]c3ccccc23)[C@@H](c2c(F)cc(OC3CN(CC[S+]([O-])CCCC(F)(F)C(F)(F)F)C3)cc2F)N1CC(F)(F)F (some centres not stated),remaining at 1 h,[1],24.9%
same,remaining at 1 h,[2],53.7%
